Data from ChEMBL document CHEMBL6120994, “Unravelling the potential of natural chelating agents in the control of Staphylococcus aureus and Pseudomonas aeruginosa biofilms” (Eur J Med Chem, 2025).
Calls of active or inactive are those of the source. The rule behind the calls is not given here.

Legend:
Staphylococcus aureus [1] = assay: Antibacterial activity against Staphylococcus aureus CECT 976 assessed as inhibition of bacterial growth incubated for 24 hrs by broth microdilution method; type: functional
[2] = Metal chelating activity at iron(III) in chrome azurol sulphonate solution assessed as absorption spectra peak around […] incubated for 30 mins by spectrophotometric analysis
Pseudomonas aeruginosa [3] = assay: Antibacterial activity against Pseudomonas aeruginosa ATCC 10145 assessed as inhibition of bacterial growth by measuring inhibition zone diameter at 100 ug/ml incubated for 24 hrs in presence of tetracycline by disc diffusion method (reference value: 2 mm); type: functional; settings: read-out: DIZ
Staphylococcus aureus [4] = assay: Antibacterial activity against Staphylococcus aureus CECT 976 assessed as inhibition of bacterial growth by measuring inhibition zone diameter at 1000 ug/ml incubated for 24 hrs in presence of tetracycline by disc diffusion method (reference value: 24 +/- 1.41 mm); type: functional; settings: read-out: DIZ
Staphylococcus aureus [5] = assay: Antibiotic adjuvant activity against Staphylococcus aureus CECT 976 assessed as potentiation of tobramycin-induced antibacterial activity by measuring tobramycin MIC at 62.5 ug/ml measured after 24 hrs by checkerboard assay (reference value: 4 ug/ml); type: functional; settings: dose 62.5 µg/ml
Pseudomonas aeruginosa [6] = assay: Antibiotic adjuvant activity against Pseudomonas aeruginosa ATCC 10145 assessed as potentiation of ciprofloxacin-induced antibiofilm activity by measuring reduction in biomass production at 500 ug/ml measured after 24 hrs in presence of 1/16XMIC ciprofloxacin by cystal violet staining method (reference value: 36%); type: functional
Staphylococcus aureus [7] = assay: Antibiofilm activity against Staphylococcus aureus CECT 976 assessed as reduction in biomass production at 500 to 1000 ug/ml measured after 24 hrs by crystal violet staining method; type: functional; settings: dose 500-1000 µg/ml, at 500 to 1000 µg/mL
Staphylococcus aureus [8] = assay: Antibiofilm activity against Staphylococcus aureus CECT 976 assessed as reduction in metabolic activity of biofilm cells at 500 to 1000 ug/ml by resazurin staining based fluorescence analysis; type: functional; settings: dose 500-1000 µg/ml; at 500 to 1000 µg/mL
Staphylococcus aureus [9] = assay: Antibiofilm activity against preestablished 24 hr-old Staphylococcus aureus CECT 976 assessed as biomass removal at 1000 to 10000 ug/ml measured after 24 hrs by crystal violet staining method; type: functional; settings: dose 1000-10000 µg/ml, at 1000 to 10000 µg/mL
Pseudomonas aeruginosa [10] = assay: Antibiofilm activity against preestablished 24 hr-old Pseudomonas aeruginosa ATCC 10145 assessed as reduction in metabolic activity of biofilm cells at MTC by resazurin staining based fluorescence analysis; type: functional, organism-based
Pseudomonas aeruginosa [11] = assay: Antibiotic adjuvant activity against preestablished 24-hr old Pseudomonas aeruginosa ATCC 10145 assessed as potentiation of ciprofloxacin-induced antibiofilm activity by measuring reduction in metabolic activity of biofilm cells at 1000 ug/ml in presence of 1/8XMIC ciprofloxacin by resazurin staining based fluorescence analysis; type: functional, organism-based; settings: dose 1000.0 µg/ml
Pseudomonas aeruginosa [12] = assay: Antibiotic adjuvant activity against preestablished 24-hr old Pseudomonas aeruginosa ATCC 10145 assessed as potentiation of ciprofloxacin-induced antibiofilm activity by measuring reduction of CFU biofilm cells at 1000 ug/ml measured after 24 hrs in presence of 1/8XMIC ciprofloxacin by visual counting method; type: functional, organism-based; settings: dose 1000.0 µg/ml
Cell membrane = assay: Disruption of membrane integrity in pre-established 24 hr-old Staphylococcus aureus CECT 976 biofilm at 10XMTC measured after 24 hrs by SYTO9/PI dye based epifluorescence microscopy; type: subcellular
Staphylococcus aureus [13] = assay: Inhibition of virulence production in Staphylococcus aureus CECT 976 biofilms assessed as diameter of gelatinases halo at 1/2XMTC measured after 48 hrs (reference value: 10.8 to 11.5 mm); type: functional
Staphylococcus aureus [14] = assay: Inhibition of virulence production in Staphylococcus aureus CECT 976 biofilms assessed as diameter of gelatinases halo at 1/2XMTC measured after 48 hrs in presence of 1/4XMIC tobramycin (reference value: 11.3 to 11.8 mm); type: functional
Staphylococcus aureus [15] = assay: Inhibition of virulence production in Staphylococcus aureus CECT 976 biofilms assessed as diameter of gelatinases halo at 1/2XMTC measured after 48 hrs in presence of 1/8XMIC tobramycin (reference value: 11.3 to 12 mm); type: functional
Staphylococcus aureus [16] = assay: Inhibition of virulence production in Staphylococcus aureus CECT 976 biofilms assessed as diameter of gelatinases halo at 1/2XMTC measured after 48 hrs in presence of 1/2XMIC tobramycin (reference value: 10 to 10.8 mm); type: functional
Staphylococcus aureus [17] = assay: Inhibition of virulence production in Staphylococcus aureus CECT 976 biofilms assessed as diameter of lipases halo at 1/2XMTC measured after 48 hrs in presence of 1/8XMIC tobramycin (reference value: 12.5 to 12.8 mm); type: functional
Staphylococcus aureus [18] = assay: Inhibition of virulence production in Staphylococcus aureus CECT 976 biofilms assessed as diameter of protease halo at 1XMTC measured after 72 hrs (reference value: 12 to 13 mm); type: functional
Staphylococcus aureus [19] = assay: Inhibition of virulence production in Staphylococcus aureus CECT 976 biofilms assessed as diameter of protease halo at 1/2XMTC measured after 72 hrs in presence of 1/8XMIC tobramycin (reference value: 12.5 to 13.3 mm); type: functional
Staphylococcus aureus [20] = assay: Inhibition of virulence production in Staphylococcus aureus CECT 976 biofilms assessed as diameter of siderophores halo at 1/2XMTC measured after 48 hrs in presence of 1/8XMIC tobramycin (reference value: 10.5 +/-0.6 mm); type: functional
Staphylococcus aureus [21] = assay: Inhibition of virulence production in pre-established 24 hr-old Staphylococcus aureus CECT 976 biofilms assessed as diameter of gelatinases halo at 10XMTC measured after 48 hrs in presence of 1/4XMIC tobramycin (reference value: 10 to 11.3 mm); type: functional
Staphylococcus aureus [22] = assay: Inhibition of virulence production in pre-established 24 hr-old Staphylococcus aureus CECT 976 biofilms assessed as diameter of lipases halo at 10XMTC measured after 48 hrs in presence of 1/2XMIC tobramycin (reference value: 11.5 to 12.3 mm); type: functional
Staphylococcus aureus [23] = assay: Inhibition of virulence production in pre-established 24 hr-old Staphylococcus aureus CECT 976 biofilms assessed as diameter of protease halo at 10XMTC measured after 72 hrs (reference value: 12.5 to 13.3 mm); type: functional
Staphylococcus aureus [24] = assay: Inhibition of virulence production in pre-established 24 hr-old Staphylococcus aureus CECT 976 biofilms assessed as diameter of siderophores halo at 1XMTC measured after 48 hrs (reference value: 11.5 to 11.8 mm); type: functional
Staphylococcus aureus [25] = assay: Inhibition of virulence production in pre-established 24 hr-old Staphylococcus aureus CECT 976 biofilms assessed as diameter of siderophores halo at 10XMTC measured after 48 hrs in presence of 1/2XMIC tobramycin (reference value: 11.8 +/-0.5 mm); type: functional
HepG2 = assay: Cytotoxicity against human HepG2 cells assessed as cell mass by measuring SRB binding at 93.5 to 1000 ug/ml measured after 24 hrs by SRB assay; type: toxicity, cell-based; settings: hepg2, 24 h, at 93.5 to 1000 µg/mL, dose 93.5-1000 µg/ml

**Q.** Which MIC (Staphylococcus aureus [1]) does the source give for O=c1cc(CO)occ1O [KOJIC ACID] here?
**A.** > 1000 µg/mL

**Q.** And the Activity [2]?
**A.** Active

**Q.** And the zone of inhibition at 100 µg/mL (Pseudomonas aeruginosa [3])?
**A.** 5 mm

**Q.** And the zone of inhibition at 1000 µg/mL (Staphylococcus aureus [4])?
**A.** 27.2 mm

**Q.** And the MIC (Staphylococcus aureus [5])?
**A.** 1 µg/mL

**Q.** And the inhibition at 500 µg/mL (Pseudomonas aeruginosa [6])?
**A.** 60%

**Q.** What about the “inhibition (INH)” value (Staphylococcus aureus [7]) of the same molecule?
**A.** 26%

**Q.** What about the “inhibition (INH)” value (Staphylococcus aureus [8]) of the same molecule?
**A.** 40%

**Q.** What about the “inhibition (INH)” value (Staphylococcus aureus [9]) of the same molecule?
**A.** 15%

**Q.** What about the Activity (Pseudomonas aeruginosa [10]) of the same molecule?
**A.** inactive

**Q.** And the Activity (Pseudomonas aeruginosa [11])?
**A.** inactive

**Q.** What about the Activity (Pseudomonas aeruginosa [12]) of the same molecule?
**A.** inactive

**Q.** What about the Activity (Cell membrane) of the same molecule?
**A.** inactive

**Q.** And the Activity (Staphylococcus aureus [13])?
**A.** 0 mm

**Q.** And the Activity (Staphylococcus aureus [14])?
**A.** 0 mm

**Q.** What about the Activity (Staphylococcus aureus [15]) of the same molecule?
**A.** 0 mm

**Q.** What about the Activity (Staphylococcus aureus [16]) of the same molecule?
**A.** 0 mm

**Q.** And the Activity (Staphylococcus aureus [17])?
**A.** 2.5 mm

**Q.** What about the Activity (Staphylococcus aureus [18]) of the same molecule?
**A.** 0 mm

**Q.** What about the Activity (Staphylococcus aureus [19]) of the same molecule?
**A.** 0 mm

**Q.** What about the Activity (Staphylococcus aureus [20]) of the same molecule?
**A.** 9 mm

**Q.** What about the Activity (Staphylococcus aureus [21]) of the same molecule?
**A.** 0 mm

**Q.** What about the Activity (Staphylococcus aureus [22]) of the same molecule?
**A.** 2 mm

**Q.** What about the Activity (Staphylococcus aureus [23]) of the same molecule?
**A.** 0 mm

**Q.** And the Activity (Staphylococcus aureus [24])?
**A.** 10 mm

**Q.** And the Activity (Staphylococcus aureus [25])?
**A.** 10 mm

**Q.** And the Activity (HepG2)?
**A.** > 90%

**Q.** With Cc1occc(=O)c1O [MALTOL] as the molecule, how does the MIC (Staphylococcus aureus [1]) read?
**A.** > 1000 µg/mL

**Q.** And the Activity [2]?
**A.** Active

**Q.** What about the zone of inhibition at 100 µg/mL (Pseudomonas aeruginosa [3]) of the same molecule?
**A.** 3.5 mm

**Q.** And the zone of inhibition at 1000 µg/mL (Staphylococcus aureus [4])?
**A.** 25.8 mm

**Q.** What about the MIC (Staphylococcus aureus [5]) of the same molecule?
**A.** 1 µg/mL

**Q.** And the inhibition at 500 µg/mL (Pseudomonas aeruginosa [6])?
**A.** 60%

**Q.** And the “inhibition (INH)” value (Staphylococcus aureus [7])?
**A.** 26%

**Q.** What about the “inhibition (INH)” value (Staphylococcus aureus [8]) of the same molecule?
**A.** 40%

**Q.** What about the “inhibition (INH)” value (Staphylococcus aureus [9]) of the same molecule?
**A.** 15%

**Q.** What about the Activity (Pseudomonas aeruginosa [10]) of the same molecule?
**A.** inactive

**Q.** And the Activity (Pseudomonas aeruginosa [11])?
**A.** inactive

**Q.** What about the Activity (Pseudomonas aeruginosa [12]) of the same molecule?
**A.** inactive

**Q.** And the Activity (Cell membrane)?
**A.** inactive

**Q.** And the Activity (Staphylococcus aureus [13])?
**A.** 0 mm

**Q.** And the Activity (Staphylococcus aureus [14])?
**A.** 0 mm

**Q.** And the Activity (Staphylococcus aureus [15])?
**A.** 0 mm

**Q.** What about the Activity (Staphylococcus aureus [16]) of the same molecule?
**A.** 0 mm

**Q.** And the Activity (Staphylococcus aureus [17])?
**A.** 2 mm

**Q.** And the Activity (Staphylococcus aureus [18])?
**A.** 0 mm

**Q.** What about the Activity (Staphylococcus aureus [19]) of the same molecule?
**A.** 0 mm

**Q.** What about the Activity (Staphylococcus aureus [20]) of the same molecule?
**A.** 10 mm

**Q.** And the Activity (Staphylococcus aureus [21])?
**A.** 0 mm

**Q.** What about the Activity (Staphylococcus aureus [22]) of the same molecule?
**A.** 2.3 mm

**Q.** And the Activity (Staphylococcus aureus [23])?
**A.** 0 mm

**Q.** And the Activity (Staphylococcus aureus [24])?
**A.** 10 mm

**Q.** What about the Activity (Staphylococcus aureus [25]) of the same molecule?
**A.** 10 mm

**Q.** And the Activity (HepG2)?
**A.** > 90%
